Reference: patent publication US20180296531A1, “STIMULATION OF 11B-HSD2 EXPRESSION TO IMPROVE HORMONAL THERAPY OF STEROID-DEPENDENT DISEASE” (THE CLEVELAND CLINIC FOUNDATION, priority 2015, published 2018)

Key:
11β-HSD2 protein = assay: Immunoblot of 11β-HSD2 protein in prostate cancer cell lines; format: cell-based, human
Method: (§1) For protein analysis, immunoblots were performed as described previously. Li et al., J Clin Endocrinol Metab 98, E1189-1197 (2013). Briefly, total cellular protein was extracted with ice cold RIPA lysis buffer (Sigma-Aldrich) containing protease inhibitors (Roche). 30-50 μg protein was separated by 8% SDS-PAGE gel and then transferred to a nitrocellulose membrane (Millipore). After incubating with the anti-11β-HSD2 antibody (Santa Cruz; 1:3000), anti-11β-HSD1 antibody (Santa Cruz; 1:1000), GR antibody (BD Biosciences; 1:1000), anti-Erlin-2 antibody (Cell Signaling Technology: 1:1000) or anti-AMFR antibody (Proteintech; 1:1000) overnight at 4° C., the appropriate secondary antibody was incubated for 1 hour at room temperature. The chemiluminescent detection system (Thermo Scientific) was used to detect the bands with peroxidase activity. An anti-β-actin antibody (Sigma-Aldrich; 1:5000) was used as a control for sample loading.

11β-HSD1 protein = assay: Immunoblot of 11β-HSD1 protein in prostate cancer cell lines; format: cell-based, human; conditions: AR-expressing prostate cancer cell lines
Method: as §1

GR protein = assay: Immunoblot of GR protein in prostate cancer cell lines; format: cell-based, human
Method: as §1

[1] = system: LAPC4 and VCaP CRPC xenografts; assay: Mouse xenograft studies: tumor growth and progression-free survival; format: in vivo
Method: All mouse studies were performed under a protocol approved by the Institutional Animal Care and Use Committee (IACUC) of the Cleveland Clinic Lerner Research Institute. All NSG male mice (6-8 weeks old) were purchased from the Jackson Laboratory and the number of mice used in this study was based on previously published mouse xenograft studies by our lab that determined effects of steroid pathway inhibition/augmentation on xenograft growth. Mice were surgically orchiectomized and implanted with DHEA pellets to mimic human adrenal DHEA production in patients with CRPC. 1 week later, mice were prepared for cell injections.
For the evaluation of the 11β-HSD2 role in reversing enzalutamide resistance, either 10^7 vector control or 10^7 11β-HSD2 overexpressing LAPC4 or VCaP cells (100 μl in 50% matrigel and 50% growth media) were subcutaneously injected into mice. When tumors reached 100 or 150 mm^3 (length×width×height×0.52), for LAPC4 and VCaP xenografts, respectively, the mice were arbitrarily divided into 2 groups each for vector and 11β-HSD2 overexpressing cells: Enz diet 62.5 mg/kg and or chow alone groups. Tran et al., Science 324, 787-790 (2009). Based on the daily chow consumption, approximately 0.3125 mg Enz was consumed per mouse per day. Enz in chow and chow alone were obtained from Medivation. Tumor volume was measured every other day, and progression-free survival was assessed as time to 3-fold (LAPC4) or 1.5-fold (VCaP) increase in tumor volume (from 100 or 150 mm^3) from the time Enz or chow alone was initiated. The number of mice in the LAPC4 Vector/Ctrl, Vector/Enz, 11β-HSD2/Ctrl and 11β-HSD2/Enz groups were 9, 9, 10, and 11, respectively. The number of mice in the VCaP Vector/Ctrl, Vector/Enz, 11β-HSD2/Ctrl and 11β-HSD2/Enz groups were 6, 6, 5, and 8, respectively. Numbers of mice in each treatment group were determined by those that survived surgical procedures and had reached a tumor volume to initiate treatment.
For evaluation of the role of AMFR in reversing enzalutamide resistance, either 10^7 control or 10^7 AMFR knockdown LAPC4 cells (100 μl in 50% matrigel and 50% growth media) were subcutaneously injected into mice. The remaining procedures were performed as described above. The number of mice in the LAPC4 shCtrl/Enz and shAMFR/Enz groups were 6, and 10, respectively. Protein levels of 11β-HSD2 in the shCtrl and control or shAMFR LAPC4 xenografts were analyzed by immunoblot. Briefly, ˜40-50 mg xenograft tissue was minced into pieces and then added into soft tissue homogenizing CK14 tubes (Betin Technologies) with 150 μl RIPA buffer containing protease inhibitors. Xenograft tissues were homogenized with a homogenizer (Minilys, Betin Technologies) 6 times (40 seconds each time) at the highest speed. Tubes were incubated on the ice for 5-10 minutes between each homogenization to cool lysates. The lysates were then centrifuged for 30 minutes at 15,000×g and the supernatants were used for immunoblot analysis.

serum corticosterone = assay: Mass spectrometry of corticosterone in mouse serum; format: in vivo
Method: Mouse serum analysis. At the endpoint of the xenograft study, mouse serum was collected. 20 μl of mouse serum and internal standard (corticosterone-d8) were precipitated with 200 μl methanol. After centrifugation, the supernatant was transferred to HPLC vials prior to mass spectrometry analysis.
The LC-MS/MS system contains an ultra-pressure liquid chromatography system (Shimadzu Corporation, Japan) which is consisted of two LC-30AD pumps, a DGU-20A5R degasser, a CTO-30A column oven, SIL-30AC autosampler, and a system controller CBM-20A and coupled with a Qtrap 5500 mass spectrometer (AB Sciex). Data acquisition and processing were performed using Analyst® software (version 1.6.2) from ABSciex.
Steroids were ionized using electrospray ionization in positive mode. Quantification of analytes was performed using multiple reaction monitoring. The mass transitions for corticosterone, 11-dehydrocorticosterone, and internal standard are 347.3/121.0, 345.3/121.0, and 355.3/125.0, respectively. Separation of steroids was achieved using a Zorbax Eclipse plus C18 column (Agilent) using mobile phase consisting of (A) 0.2% formic acid in water and (B) 0.2% formic acid in (methanol:acetonitrile, 60:40) with a gradient program at a flow rate of 0.2 ml/min. Sample injection volume was 10 μl.

Erlin-2 = assay: Immunoblot of Erlin-2 in LAPC4 cells and human prostate tissues; format: cell-based
Method: as §1
Seven fresh prostate tissue cores (60-80 mg) from Patients #5-#11 were obtained from the peripheral zone of radical prostatectomy specimens at Cleveland Clinic, confirmed to have tumor in or in close proximity to cores by an expert prostate cancer pathologist, minced and aliquoted to two parts. One was treated with 10 nM DHEA plus vehicle, and the other was treated with 10 nM DHEA plus 10 μM Enz. […]

[2] = LAPC4 xenografts with forced 11β-HSD2 expression, enzalutamide in chow
[3] = enzalutamide-treated LAPC4 xenografts with stable AMFR knockdown
[4] = enzalutamide treated 11β-HSD2 mice
[5] = enzalutamide treated vector mice

SMILES: CNC(=O)c1ccc(N2C(=S)N(c3ccc(C#N)c(C(F)(F)F)c3)C(=O)C2(C)C)cc1F [enzalutamide]
- 11β-HSD2 protein expression (11β-HSD2 protein; AR-negative DU145 prostate cancer cell line): does not change 11β-HSD2 protein expression
- 11β-HSD2 protein (11β-HSD2 protein; LAPC4): Loss of 11β-HSD2 protein
- 11β-HSD2 protein (11β-HSD2 protein; MDA-PCa-2b): Loss of 11β-HSD2 protein
- 11β-HSD2 protein (11β-HSD2 protein; VCaP): Loss of 11β-HSD2 protein
- 11β-HSD1 protein (11β-HSD1 protein): no consistent effect on 11β-HSD1 was detectable
- GR protein (GR protein; LAPC4): increase in GR protein
- GR protein (GR protein; VCaP and MDA-PCa-2b): increase in GR protein
- xenograft tumor growth ([1]; LAPC4 Vector xenografts, orchiectomized mice with DHEA, enzalutamide in chow): growth of Vector xenografts through enzalutamide therapy
- progression-free survival [1, 2]: prolonged progression-free survival
- xenograft tumor growth [1, 2]: significantly reversed enzalutamide-resistant growth
- sensitivity of xenograft to treatment ([1]; VCaP xenografts with 11β-HSD2 expression): Reinstatement of sensitivity to enzalutamide treatment
- progression-free survival [1, 3]: prolonged progression-free survival
- xenograft tumor growth [1, 3]: suppressed xenograft growth
- serum corticosterone absolute concentration (serum corticosterone; [4]): 867 pmol/mL
- serum percentage of corticosterone (serum corticosterone; [4]): 99.85%
- serum corticosterone absolute concentration (serum corticosterone; [5]): 873 pmol/mL
- serum percentage of corticosterone (serum corticosterone; [5]): 99.87%
- Erlin-2 expression (Erlin-2; LAPC4 cells): consistently up-regulated
- patient tissues with Erlin-2 up-regulation (Erlin-2; human prostate tissues treated with enzalutamide): 8 of 11
